Test system: MV-4-11 cells
Experiment: Gene expression microarray analysis (Affymetrix PrimeView) and GSEA
Format: cell-based, human
Parameters: RFU PODN (11730768_x_at) / Fold change /veh PODN (11730768_x_at) / RFU LINC00158 (11744669_a_at) / Fold change /veh LINC00158 (11744669_a_at) / RFU DUSP10 (11751237_a_at) / Fold change /veh DUSP10 (11751237_a_at) / RFU ID3 (11757404_x_at) / Fold change /veh ID3 (11757404_x_at) / RFU PLEKHG5 (11737974_s_at) / Fold change /veh PLEKHG5 (11737974_s_at) / RFU LRRC4B (11730491_at) / Fold change /veh LRRC4B (11730491_at) / RFU GIMAP4 (11747438_a_at) / Fold change /veh GIMAP4 (11747438_a_at) / RFU KRT8 (11758183_x_at) / Fold change /veh KRT8 (11758183_x_at) / RFU CNN1 (11734310_a_at) / Fold change /veh CNN1 (11734310_a_at) / RFU VPS37D (11726825_at) / Fold change /veh VPS37D (11726825_at) / RFU C10orf10 (11716522_x_at) / Fold change /veh C10orf10 (11716522_x_at) / RFU KIR2DL2 /// KIR2DL4 /// KIR2DL5A /// KIR2DL5B /// KIR2DS1 /// KIR2DS2 /// KIR2DS3 /// KIR2DS4 /// KIR3DL3 /// KIR3DL3 /// KIR3DS1 (11738374_at) / Fold change /veh KIR2DL2 /// KIR2DL4 /// KIR2DL5A /// KIR2DL5B /// KIR2DS1 /// KIR2DS2 /// KIR2DS3 /// KIR2DS4 /// KIR3DL3 /// KIR3DL3 /// KIR3DS1 (11738374_at) / RFU C1QL1 (11718748_at) / Fold change /veh C1QL1 (11718748_at) / RFU TMPRSS4 (11747572_a_at) / Fold change /veh TMPRSS4 (11747572_a_at) / RFU HAMP (11756126_x_at) / Fold change /veh HAMP (11756126_x_at) / RFU RNFT2 (11725882_a_at) / Fold change /veh RNFT2 (11725882_a_at) / RFU NR4A2 (11747474_a_at) / Fold change /veh NR4A2 (11747474_a_at) / RFU ABCC12 (11746883_a_at) / Fold change /veh ABCC12 (11746883_a_at) / RFU TMEM136 (11760407_x_at) / Fold change /veh TMEM136 (11760407_x_at) / RFU CLDN22 /// WWC2 (11732394_at) / Fold change /veh CLDN22 /// WWC2 (11732394_at) / RFU HLA-DPB1 (11760878_x_at) / Fold change /veh HLA-DPB1 (11760878_x_at) / RFU SPINT1 (11716480_a_at) / Fold change /veh SPINT1 (11716480_a_at) / RFU GAP43 (11754022_s_at) / Fold change /veh GAP43 (11754022_s_at) / RFU A4GNT (11735810_at) / Fold change /veh A4GNT (11735810_at) / RFU PRB3 (11715151_x_at) / Fold change /veh PRB3 (11715151_x_at) / RFU TUBB4B (11761932_at) / Fold change /veh TUBB4B (11761932_at) / RFU CAPN14 (11732068_a_at) / Fold change /veh CAPN14 (11732068_a_at) / RFU TMCC2 (11721928_a_at) / Fold change /veh TMCC2 (11721928_a_at) / RFU IRGQ (11745062_a_at) / Fold change /veh IRGQ (11745062_a_at) / RFU FAM174B (11720279_a_at) / Fold change /veh FAM174B (11720279_a_at) / RFU TMPRSS4 (11748680_a_at) / Fold change /veh TMPRSS4 (11748680_a_at) / RFU FAM212B (11763350_a_at) / Fold change /veh FAM212B (11763350_a_at) / RFU PLEKHG5 (11743358_a_at) / Fold change /veh PLEKHG5 (11743358_a_at) / RFU ZSCAN30 (11745921_a_at) / Fold change /veh ZSCAN30 (11745921_a_at) / RFU CMKLR1 (11741424_a_at) / Fold change /veh CMKLR1 (11741424_a_at) / RFU LOC101060620 /// MAPK8IP1 (11723275_at) / Fold change /veh LOC101060620 /// MAPK8IP1 (11723275_at) / RFU SPTSSB (11747773_x_at) / Fold change /veh SPTSSB (11747773_x_at) / RFU PRSS12 (11739890_at) / Fold change /veh PRSS12 (11739890_at) / RFU BIN1 (11741810_x_at) / Fold change /veh BIN1 (11741810_x_at) / RFU WNT11 (11732464_a_at) / Fold change /veh WNT11 (11732464_a_at) / RFU C10orf10 (11716521_a_at) / Fold change /veh C10orf10 (11716521_a_at) / RFU C5orf56 (11738089_at) / Fold change /veh C5orf56 (11738089_at) / RFU CYB561 (11721691_x_at) / Fold change /veh CYB561 (11721691_x_at) / RFU ANKRD19P (11752326_a_at) / Fold change /veh ANKRD19P (11752326_a_at) / RFU OR2T12 /// OR2T33 /// OR2T8 (11738714_s_at) / Fold change /veh OR2T12 /// OR2T33 /// OR2T8 (11738714_s_at) / RFU VCAN (11748164_a_at) / Fold change /veh VCAN (11748164_a_at) / RFU JSRP1 (11732532_at) / Fold change /veh JSRP1 (11732532_at) / RFU KRTAP10-11 (11738290_x_at) / Fold change /veh KRTAP10-11 (11738290_x_at) / RFU MYO3A (11730013_a_at) / Fold change /veh MYO3A (11730013_a_at) / RFU EBF3 (11725865_a_at) / Fold change /veh EBF3 (11725865_a_at) / RFU CAMK2N1 (11719241_x_at) / Fold change /veh CAMK2N1 (11719241_x_at) / RFU C5orf56 (11738088_a_at) / Fold change /veh C5orf56 (11738088_a_at) / RFU OLFML3 (11715873_a_at) / Fold change /veh OLFML3 (11715873_a_at) / RFU LOC100653217 /// NTM (11731650_a_at) / Fold change /veh LOC100653217 /// NTM (11731650_a_at) / RFU MAPK11 (11762145_a_at) / Fold change /veh MAPK11 (11762145_a_at) / RFU FIZ1 (11724087_x_at) / Fold change /veh FIZ1 (11724087_x_at) / RFU OASL (11726364_x_at) / Fold change /veh OASL (11726364_x_at) / RFU SOX15 (11748057_x_at) / Fold change /veh SOX15 (11748057_x_at) / RFU CD79A (11719716_a_at) / Fold change /veh CD79A (11719716_a_at) / RFU HIST1H1D (11736915_at) / Fold change /veh HIST1H1D (11736915_at) / RFU CASKIN2 (11723855_a_at) / Fold change /veh CASKIN2 (11723855_a_at) / RFU LOC730098 (11760151_x_at) / Fold change /veh LOC730098 (11760151_x_at) / RFU OR4N2 (11742367_at) / Fold change /veh OR4N2 (11742367_at) / RFU PRRT2 (11749266_a_at) / Fold change /veh PRRT2 (11749266_a_at) / RFU SNX32 (11753110_a_at) / Fold change /veh SNX32 (11753110_a_at) / RFU CDHR5 (11726645_a_at) / Fold change /veh CDHR5 (11726645_a_at) / RFU RCAN1 (11760418_a_at) / Fold change /veh RCAN1 (11760418_a_at) / RFU FAM167A (11723789_a_at) / Fold change /veh FAM167A (11723789_a_at) / RFU FAM26E (11764081_at) / Fold change /veh FAM26E (11764081_at) / RFU ISYNA1 (11749810_s_at) / Fold change /veh ISYNA1 (11749810_s_at) / RFU ACY1 (11761880_at) / Fold change /veh ACY1 (11761880_at) / RFU 11764098_at / Fold change /veh 11764098_at / RFU SAMD14 (11745864_x_at) / Fold change /veh SAMD14 (11745864_x_at) / RFU NPB (11741838_a_at) / Fold change /veh NPB (11741838_a_at) / RFU TMPRSS6 (11731388_a_at) / Fold change /veh TMPRSS6 (11731388_a_at) / RFU KRTAP10-2 (11738614_at) / Fold change /veh KRTAP10-2 (11738614_at) / RFU ARHGAP8 /// PRR5-ARHGAP8 (11727945_x_at) / Fold change /veh ARHGAP8 /// PRR5-ARHGAP8 (11727945_x_at) / RFU KRTAP5-7 /// NADSYN1 (11734609_at) / Fold change /veh KRTAP5-7 /// NADSYN1 (11734609_at) / RFU RASL12 (11751679_a_at) / Fold change /veh RASL12 (11751679_a_at) / RFU CDKN2B (11736163_a_at) / Fold change /veh CDKN2B (11736163_a_at) / RFU PRF1 (11729649_at) / Fold change /veh PRF1 (11729649_at) / RFU, ZNF638 /// ZNF638-IT1 / Fold change vs veh, ZNF638 /// ZNF638-IT1 / RFU, PANK3 / Fold change vs veh, PANK3 / RFU, SH3YL1 / Fold change vs veh, SH3YL1 / RFU, ZEB2 / Fold change vs veh, ZEB2 / RFU, NRIP1 / Fold change vs veh, NRIP1 / RFU, PTTG1IP / Fold change vs veh, PTTG1IP / RFU, CAPN2 / Fold change vs veh, CAPN2 / RFU, MED14 / Fold change vs veh, MED14 / RFU, SNORA58 / Fold change vs veh, SNORA58 / RFU, C1orf63 / Fold change vs veh, C1orf63 / RFU, LRRFIP1 / Fold change vs veh, LRRFIP1 / RFU, NDUFAF7 / Fold change vs veh, NDUFAF7 / RFU, SLC12A2 / Fold change vs veh, SLC12A2 / RFU, IBTK / Fold change vs veh, IBTK / RFU, ESF1 / Fold change vs veh, ESF1 / Fold change vs veh, TMEM50B / RFU, TAOK1 / Fold change vs veh, TAOK1 / RFU, ACBD3 / Fold change vs veh, ACBD3 / RFU, TMA16 / Fold change vs veh, TMA16 / RFU, RWDD3 / Fold change vs veh, RWDD3 / RFU, BCAT1 / Fold change vs veh, BCAT1 / RFU, EDEM3 / Fold change vs veh, EDEM3 / RFU, TMEM33 / Fold change vs veh, TMEM33 / RFU, WDR75 / Fold change vs veh, WDR75 / RFU, AHCTF1 / Fold change vs veh, AHCTF1 / RFU, TFRC / Fold change vs veh, TFRC / RFU, ZDHHC17 / Fold change vs veh, ZDHHC17 / RFU, NOM1 / Fold change vs veh, NOM1 / RFU, ARL8B / Fold change vs veh, ARL8B / RFU, ZBTB11 / Fold change vs veh, ZBTB11 / RFU, TAMM41 / Fold change vs veh, TAMM41 / RFU, KIAA1704 /// LOC100996395 / Fold change vs veh, KIAA1704 /// LOC100996395 / RFU, ING1 / Fold change vs veh, ING1 / RFU, TRMT61B / Fold change vs veh, TRMT61B / RFU, FUBP3 / Fold change vs veh, FUBP3 / RFU, TP53 / Fold change vs veh, TP53 / RFU, TNKS2 / Fold change vs veh, TNKS2 / RFU, ZFP14 / Fold change vs veh, ZFP14 / RFU, ACTR2 / Fold change vs veh, ACTR2 / RFU, PPP3R1 / Fold change vs veh, PPP3R1 / RFU, PIK3R1 / Fold change vs veh, PIK3R1 / RFU, HNRNPA1 / Fold change vs veh, HNRNPA1 / RFU, RNF170 / Fold change vs veh, RNF170 / RFU, ZNF28 / Fold change vs veh, ZNF28 / RFU, RNGTT / Fold change vs veh, RNGTT / RFU, OGT / Fold change vs veh, OGT / RFU, BRD1 / Fold change vs veh, BRD1 / RFU, MARS / Fold change vs veh, MARS / RFU, ZNF655 / Fold change vs veh, ZNF655 / RFU, FAHD1 / Fold change vs veh, FAHD1 / RFU, BDP1 / Fold change vs veh, BDP1 / RFU, LRRCC1 / Fold change vs veh, LRRCC1 / RFU, ARID1A / Fold change vs veh, ARID1A / RFU, ZNF146 / Fold change vs veh, ZNF146 / RFU, ZNF330 / Fold change vs veh, ZNF330 / RFU, GPN3 / Fold change vs veh, GPN3 / RFU, C9orf123 / Fold change vs veh, C9orf123 / RFU, N4BP2L2 / Fold change vs veh, N4BP2L2 / RFU, ARFIP1 / Fold change vs veh, ARFIP1 / RFU, FAM179B / Fold change vs veh, FAM179B / RFU, BCL10 / Fold change vs veh, BCL10 / RFU, UHRF1BP1L / Fold change vs veh, UHRF1BP1L / RFU, BET1 / Fold change vs veh, BET1 / RFU, CNOT2 / Fold change vs veh, CNOT2 / RFU, ZNF268 / Fold change vs veh, ZNF268 / Fold change vs veh, ZNF507 / RFU, DGCR2 / Fold change vs veh, DGCR2 / RFU, WDSUB1 / Fold change vs veh, WDSUB1 / Fold change vs veh, HSP90B1 /// MIR3652 / RFU, ADSS / Fold change vs veh, ADSS / RFU, GK / Fold change vs veh, GK / RFU, ZNF148 / Fold change vs veh, ZNF148 / RFU, TAF9 / Fold change vs veh, TAF9 / RFU, SLC1A5 / Fold change vs veh, SLC1A5 / RFU, SLMO2 / Fold change vs veh, SLMO2 / RFU, ABCC4 / Fold change vs veh, ABCC4 / RFU, LOC101060439 /// RAP1B / Fold change vs veh, LOC101060439 /// RAP1B / RFU, RFX7 / Fold change vs veh, RFX7 / RFU, GTPBP10 / Fold change vs veh, GTPBP10 / RFU, CNEP1R1 / Fold change vs veh, CNEP1R1 / RFU, BIVM-ERCC5 /// ERCC5 / Fold change vs veh, BIVM-ERCC5 /// ERCC5 / RFU, ILF3 / Fold change vs veh, ILF3 / RFU 11762660_at / Fold change /veh 11762660_at / RFU VCAN (11757783_s_at) / Fold change /veh VCAN (11757783_s_at) / RFU DDX43 (11728927_at) / Fold change /veh DDX43 (11728927_at) / RFU KRT8 (11758188_x_at) / Fold change /veh KRT8 (11758188_x_at) / RFU NKD1 (11759106_at) / Fold change /veh NKD1 (11759106_at) / RFU SRD5A1 (11742802_a_at) / Fold change /veh SRD5A1 (11742802_a_at) / RFU TPSAB1 /// TPSB2 (11721975_s_at) / Fold change /veh TPSAB1 /// TPSB2 (11721975_s_at) / RFU GSTM3 (11746129_a_at) / Fold change /veh GSTM3 (11746129_a_at) / RFU IL23R (11737362_x_at) / Fold change /veh IL23R (11737362_x_at) / RFU TMEM51 (11727254_a_at) / Fold change /veh TMEM51 (11727254_a_at) / RFU PIWIL2 (11732686_x_at) / Fold change /veh PIWIL2 (11732686_x_at) / RFU ORM1 (11744905_x_at) / Fold change /veh ORM1 (11744905_x_at) / RFU CCDC152 (11743942_at) / Fold change /veh CCDC152 (11743942_at) / RFU ECM1 (11717891_a_at) / Fold change /veh ECM1 (11717891_a_at) / RFU IL23R (11748794_a_at) / Fold change /veh IL23R (11748794_a_at) / RFU TNFAIP8L3 (11732012_x_at) / Fold change /veh TNFAIP8L3 (11732012_x_at) / RFU MBOAT4 (11741988_at) / Fold change /veh MBOAT4 (11741988_at) / RFU 11764193_at / Fold change /veh 11764193_at / RFU TMEM53 (11763286_at) / Fold change /veh TMEM53 (11763286_at) / RFU MAGEB2 (11727129_at) / Fold change /veh MAGEB2 (11727129_at) / RFU TMEM200A (11744735_a_at) / Fold change /veh TMEM200A (11744735_a_at) / RFU CCDC152 (11751479_a_at) / Fold change /veh CCDC152 (11751479_a_at) / RFU FAM211A (11726209_a_at) / Fold change /veh FAM211A (11726209_a_at) / RFU RGS16 (11746705_a_at) / Fold change /veh RGS16 (11746705_a_at) / RFU VCAN (11755009_s_at) / Fold change /veh VCAN (11755009_s_at) / RFU RHOB (11743442_s_at) / Fold change /veh RHOB (11743442_s_at) / RFU RGS16 (11720943_a_at) / Fold change /veh RGS16 (11720943_a_at) / RFU RGS16 (11720944_at) / Fold change /veh RGS16 (11720944_at) / RFU, VPS4B / Fold change vs veh, VPS4B / RFU, CREB1 / Fold change vs veh, CREB1 / RFU, DNAJC13 / Fold change vs veh, DNAJC13 / RFU, GNAQ / Fold change vs veh, GNAQ / RFU, CDK5R1 / Fold change vs veh, CDK5R1 / RFU, ZRANB3 / Fold change vs veh, ZRANB3 / RFU, CUL4A / Fold change vs veh, CUL4A / RFU, CCNY / Fold change vs veh, CCNY / RFU, UFL1 / Fold change vs veh, UFL1 / RFU, COG3 / Fold change vs veh, COG3 / RFU, DIAPH2 / Fold change vs veh, DIAPH2 / RFU, SKA2 / Fold change vs veh, SKA2 / RFU, AFF3 / Fold change vs veh, AFF3 / RFU, LMF1 / Fold change vs veh, LMF1 / RFU, IPO11 / Fold change vs veh, IPO11 / RFU, DFFB / Fold change vs veh, DFFB / RFU, FOXP1 / Fold change vs veh, FOXP1 / RFU, CARD8 / Fold change vs veh, CARD8 / RFU, STRN3 / Fold change vs veh, STRN3 / RFU, ADK / Fold change vs veh, ADK / RFU, RASSF2 / Fold change vs veh, RASSF2 / RFU, WIPF1 / Fold change vs veh, WIPF1 / RFU, LARP1B / Fold change vs veh, LARP1B / RFU, RASA1 / Fold change vs veh, RASA1 / RFU, RB1 / Fold change vs veh, RB1 / RFU, PPFIA1 / Fold change vs veh, PPFIA1 / RFU, MAT2A / Fold change vs veh, MAT2A / RFU, CCT5 / Fold change vs veh, CCT5 / RFU, WDR92 / Fold change vs veh, WDR92 / RFU, CUX1 / Fold change vs veh, CUX1 / RFU, TTC7A / Fold change vs veh, TTC7A / RFU, TMEM135 / Fold change vs veh, TMEM135 / RFU, DEPTOR / Fold change vs veh, DEPTOR / RFU, CPM / Fold change vs veh, CPM / RFU, DNAJB6 / Fold change vs veh, DNAJB6 / RFU, CACNA2D3 / Fold change vs veh, CACNA2D3 / RFU, DTX4 / Fold change vs veh, DTX4 / RFU, TFCP2 / Fold change vs veh, TFCP2 / RFU, GMCL1 /// GMCL1P1 / Fold change vs veh, GMCL1 /// GMCL1P1 / RFU, AEBP2 / Fold change vs veh, AEBP2 / RFU, SNHG1 /// SNORD22 /// SNORD25 /// SNORD26 /// SNORD27 /// SNORD28 /// SNORD29 /// SNORD31 / Fold change vs veh, SNHG1 /// SNORD22 /// SNORD25 /// SNORD26 /// SNORD27 /// SNORD28 /// SNORD29 /// SNORD31 / Fold change (Aza/veh), C12orf56 (ProbeSet 11735607_a_at) / Fold change (ACY-1035/veh), C12orf56 (ProbeSet 11735607_a_at) / Fold change (Aza/veh), FGFR1OP (ProbeSet 11751329_s_at) / Fold change (ACY-1035/veh), FGFR1OP (ProbeSet 11751329_s_at) / Fold change (Aza/veh), VPS36 (ProbeSet 11739960_a_at) / Fold change (ACY-1035/veh), VPS36 (ProbeSet 11739960_a_at) / RFU SYPL1 (11715823_x_at) / Fold change /veh SYPL1 (11715823_x_at) / RFU IGFBP7 (11715501_s_at) / Fold change /veh IGFBP7 (11715501_s_at) / RFU REEP3 (11722064_at) / Fold change /veh REEP3 (11722064_at) / RFU IGLL1 (11728026_x_at) / Fold change /veh IGLL1 (11728026_x_at): dose or concentration left out as unconfirmed
Details: ProbeSet 11728271_at; LIST B

`Nc1ccc(-c2cccs2)cc1NC(=O)c1ccc2c(c1)cc(C1CC1)n2CCN1CCOCC1` [ACY-1035] was tested, and the “RFU, ZNF330” value was 663.85 RFU.
